Source: patent publication US7034020B2, “Derivatives of butyric acid and uses thereof” (The University of Arkansas for Medical Science, priority 1999, dated 2006)

Columns and labels:
[1] = test system: spleen cells from DBA/2 mice; assay: Mixed lymphocyte response (MLR), alloantigen-specific T cell unresponsiveness; format: cell-based
Method: (FIG. 6A) Spleen cells from DBA/2 mice (H-2^d) were stimulated in a primary mixed lymphocyte response (MLR) with irradiated spleen cells or from C57BL/10 mice (H-2^b) in the presence (∘) or absence (●) of MEB (1 mM). As a negative control some wells are stimulated with spleen cells from DBA/2 mice (▾). Proliferation is measured on day 5. (FIG. 6B) After 3 days, some wells in the primary MLR cultures are washed, and rested for a further 2 days. The spleen cells that were stimulated in the primary MLR with spleen cells from C57BL/10 mice in the presence (∘) or absence (●) of MEB are then isolated and reincubated with either the original alloantigen (spleen cells from C57BL/10 mice), with a third-party alloantigen [spleen cells from C3H/HeJ mice (H-2k)], or with IL-2 (Con A CM).
The ability of MEB to induce alloantigen-specific T cell unresponsiveness is shown by incubating spleen cells from DBA/2 mice (H-2^d) (2.5×10^5 in 200 μl /wells) with stimulator cells [2.5×10^5 irradiated (2000R) spleen cells from C57BL/10 mice (H-2^b)]. MEB (1 mM) is added to some wells of the mixed lymphocyte reaction (MLR) 24 hours after the initiation of culture. After an additional 3 days, the MLR cultures are washed, and rested for a further 2 days. The T cells from the MLR are then isolated and reincubated at 2.5×10^5/well with either the initial alloantigen (spleen cells from C57BL/10 mice), or with a third-party alloantigen [spleen cells from C3H/HeJ mice (H-2^k)]. Proliferation in both the primary and secondary MLR is measured on day 5 by assessing incorporation of [^3H]-TdR after a 12 hour pulse.

[2] = test system: KLH-specific Th1 cells (clone D3); assay: IL-2-induced proliferation of Th1 cells in the presence of butyrate derivatives; format: cell-based, C57BL/10 mice
Method: KLH-specific Th1 cells (clone D3) are stimulated with IL-2 (10% Con A CM) in the presence of different concentrations of n-butyrate or butyrate derivatives. In FIG. 2A Th1 cell proliferation is measured after 2 days. In FIG. 2B, the inhibitors are washed out after 24 hours, and the Th1 cells reincubated with fresh IL-2-containing medium. Proliferation of the Th1 cells restimulated with IL-2 in the absence of the inhibitors is measured after an additional 2 days. This experiment was repeated three times, and the proliferation data represents the means of the […] experiments.
The KLH-specific were developed in C57BL/10 mice, and characterized as Th1 clones based on their ability to secrete IL-2, but not IL-4. The Th1 clones were passed every 7–14 days using KLH, irradiated syngeneic spleen cells as antigen-presenting cells (APC), and IL-2-containing Con A CM using a previously described protocol (Gilbert et al., 1990).
To test the ability of the butyrate derivatives to suppress T cell activity […], Th1 cells [(5×10^4 cells/well in 96 well plates (Costar)] are stimulated with 10% IL-2-containing Con A CM in the presence of various concentrations of different butyrate derivatives. In some cultures, Th1 cell proliferation is measured after two days. In other cultures, the Th1 cells are washed after 24 hours, and fresh IL-2-containing medium is added. Proliferation is measured in the washed, IL-2-restimulated cultures after an additional 2 days.

[3] = test system: isotype-specific anti-ovalbumin antibody; assay: Isotype-specific anti-ovalbumin antibody after a single dose of MEB, primary and secondary response; format: in vivo, C57BL/10 mice
Method: C57BL/10 mice are injected ip with ovalbumin/CFA on day 0, followed by a single ip injection of saline or MEB (0.15 mmol) on Days 2 or 3. The mice are reimmunized with ovalbumin sc on Day 10. Isotype-specific anti-ovalbumin antibody generated during the primary immune response (FIG. 4A), and the secondary immune response (FIG. 4B) are measured in the serum at day 10 and day 16, respectively. (FIG. 4C). […] This experiment was repeated, and the proliferation data represents the means of the two experiments.
The butyrate derivatives are tested for their ability to suppress lymphocyte activity in vivo. C57BL/10 mice (5 mice/group) are injected ip with 100 μg of ovalbumin in conjunction with complete Freund's adjuvant on Day 0. In one experiment, the mice also receive one ip injection per day of the butyrate derivatives (0.091 mmol) on Days 1–3. Serum samples are obtained 10 days after the initial injection with ovalbumin, and tested for the presence of anti-ovalbumin antibodies using an ELISA. To perform the ELISA 96 well plates (Costar 3595) are first incubated with ovalbumin (100 μl/well of 100 μg/ml in PBS) overnight at 4° C. The plates are then washed 4 times with PBS and 0.5% Tween 20, blocked with 1% fetal calf serum for 30 minutes at 37° C., and washed again. Individual serum samples are added (diluted 1/100 or 1/1000 in PBS), and the plates are incubated for 2 hours at 20° C. The plates were next washed 7 times with PBS/Tween, and alkaline phosphate (AP)-labeled goat anti-mouse IgG, IgA, IgM (H+L) (Zymed) is added ( 1/1000) for 1 hour at 20° C. The plates are again washed 7 times with PBS/Tween, alkaline phosphate substrate (1 mg/ml) is added. After 10 minutes, Ig levels are quantified by an ELISA reader (absorbance 405 nm). The concentration of anti-ovalbumin is determined by comparison with a standard curve obtained using mouse anti-ovalbumin antibody (Sigma; St. Louis, Mo.). To measure isotype-specific anti-ovalbumin antibodies, serum samples (diluted at 1/300 or 1/1000) are incubated on the ovalbumin-coated plates as described above. After washing, biotinylated detecting antibodies directed against mouse IgG2a (rat IgG1, clone R19–15), IgG2b (rat IgG2a, clone R12–3) IgG1 (rat IgG1, clone A85–1), or IgM (rat IgG2a, clone R6–60.2) (all purchased from PharMingen, La Jolla, Calif.) are added at 2.5 μg/ml for one hour at 20° C. followed by AP-labeled ExtrAvidin (Sigma) for one hour at 20° C. and AP substrate. Ig levels are presented as OD measurements. […]

[4] = single ip dose 0.15 mmol on Day 2 or 3, serum day 10
[5] = single ip dose 0.15 mmol on day 2, serum day 10
[6] = single ip dose 0.15 mmol on day 2 or day 3, reimmunized Day 10, serum day 16
[7] = single ip dose 0.15 mmol, reimmunized Day 10, serum day 16

Structure (SMILES): CCCC(=O)OCCN1CCOCC1.Cl [MEB, 2-(4-Morpholinyl)ethyl butyrate hydrochloride]
- Proliferation in secondary MLR, third-party alloantigen ([1]; MEB 1 mM in primary MLR, restimulated with C3H/HeJ spleen cells): able to proliferate
- Proliferation in secondary MLR, initial alloantigen ([1]; MEB 1 mM in primary MLR, restimulated with C57BL/10 spleen cells without MEB): lose their ability to proliferate
- Proliferation in secondary culture, exogenous IL-2 ([1]; MEB 1 mM in primary MLR, restimulated with IL-2): able to proliferate
- Spleen cell proliferation in primary one-way MLR ([1]; MEB 1 mM, day 5): blocked spleen cell proliferation
- Suppression of IL-2-induced proliferation of Th1 cells ([2]; 10% Con A CM, various concentrations, proliferation after 2 days): comparable to n-butyrate
- Proliferation to IL-2 after compounds are washed out ([2]; washed after 24 hours, fresh IL-2 medium, additional 2 days): regained their ability to proliferate to IL-2
- IgG2a anti-ovalbumin antibody, primary response [3, 4]: significantly decreased
- IgG2b anti-ovalbumin antibody, primary response [3, 4]: significantly decreased
- IgG, anti-ovalbumin antibody, primary response [3, 5]: decreased, albeit not dramatically
- IgM anti-ovalbumin antibody, primary response [3, 5]: decreased, albeit not dramatically
- Decrease of IgG2a anti-ovalbumin antibody, secondary response, compared to controls [3, 6]: 80%
- Decrease of IgG2b anti-ovalbumin antibody, secondary response, compared to controls [3, 6]: 80%
- IgG1 anti-ovalbumin production, secondary response [3, 7]: significantly decreased
- IgM anti-ovalbumin production, secondary response [3, 7]: unaffected
